Test results: PubChem BioAssay AID1259407 (Chemical Carcinogenesis Research Information System (CCRIS), 2018)
The source made the active and inactive calls. No rule for the calls is given here.

Tested on: CCRIS mutagenicity, Ames/micronucleus/aberration tests
Experiment: CCRIS mutagenicity studies
[1] = Test System: AMES SALMONELLA TYPHIMURIUM, Strain/Indicator: TA98, Metabolic Activation: NONE, Method: PREINCUBATION
[2] = Test System: AMES SALMONELLA TYPHIMURIUM, Strain/Indicator: TA98, Metabolic Activation: NONE, Method: STANDARD PLATE
[3] = Test System: AMES SALMONELLA TYPHIMURIUM, Strain/Indicator: TA100, Metabolic Activation: NONE, Method: STANDARD PLATE

With CN=C=O the mutagenic call (Test System: AMES SALMONELLA TYPHIMURIUM, Strain/Indicator: TA97A, Metabolic Activation: NONE, Method: PREINCUBATION) was “inactive; negative”, the mutagenic call (Test System: AMES SALMONELLA TYPHIMURIUM, Strain/Indicator: TA97A, Metabolic Activation: RAT, LIVER, S-9, AROCLOR 1254, Method: PREINCUBATION) was “inactive; negative” and the mutagenic call (Test System: AMES SALMONELLA TYPHIMURIUM, Strain/Indicator: TA97A, Metabolic Activation: RAT, LIVER, S-9, BETA-NAPHTHOFLAVONE, Method: PREINCUBATION) was “inactive; negative”. For the same compound, the mutagenic call (Test System: AMES SALMONELLA TYPHIMURIUM, Strain/Indicator: TA97A, Metabolic Activation: RAT, LIVER, S-9, SODIUM PHENOBARBITONE, Method: PREINCUBATION) was “inactive; negative”, the mutagenic call (Test System: AMES SALMONELLA TYPHIMURIUM, Strain/Indicator: TA98, Metabolic Activation: HAMSTER, LIVER, S-9, AROCLOR 1254, Method: STANDARD PLATE) was “inactive; negative” and the mutagenic call [1] was “inactive; negative”. For the same compound, the mutagenic call [2] was “inactive; negative”, the mutagenic call (Test System: AMES SALMONELLA TYPHIMURIUM, Strain/Indicator: TA98, Metabolic Activation: RAT, LIVER, S-9, AROCLOR 1254, Method: PREINCUBATION) was “inactive; negative” and the mutagenic call (Test System: AMES SALMONELLA TYPHIMURIUM, Strain/Indicator: TA98, Metabolic Activation: RAT, LIVER, S-9, AROCLOR 1254, Method: STANDARD PLATE) was “inactive; negative”. The mutagenic call (Test System: AMES SALMONELLA TYPHIMURIUM, Strain/Indicator: TA98, Metabolic Activation: RAT, LIVER, S-9, BETA-NAPHTHOFLAVONE, Method: PREINCUBATION) was “inactive; negative”, the mutagenic call (Test System: AMES SALMONELLA TYPHIMURIUM, Strain/Indicator: TA98, Metabolic Activation: RAT, LIVER, S-9, SODIUM PHENOBARBITONE, Method: PREINCUBATION) was “inactive; negative” and the mutagenic call (Test System: AMES SALMONELLA TYPHIMURIUM, Strain/Indicator: TA100, Metabolic Activation: HAMSTER, LIVER, S-9, AROCLOR 1254, Method: STANDARD PLATE) was “inactive; negative”. For the same compound, the mutagenic call [3] was “inactive; negative”, the mutagenic call (Test System: AMES SALMONELLA TYPHIMURIUM, Strain/Indicator: TA100, Metabolic Activation: RAT, LIVER, S-9, AROCLOR 1254, Method: PREINCUBATION) was “inactive; negative” and the mutagenic call (Test System: AMES SALMONELLA TYPHIMURIUM, Strain/Indicator: TA100, Metabolic Activation: RAT, LIVER, S-9, AROCLOR 1254, Method: STANDARD PLATE) was “inactive; negative”. The mutagenic call (Test System: AMES SALMONELLA TYPHIMURIUM, Strain/Indicator: TA100, Metabolic Activation: RAT, LIVER, S-9, BETA-NAPHTHOFLAVONE, Method: PREINCUBATION) was “inactive; negative”, the mutagenic call (Test System: AMES SALMONELLA TYPHIMURIUM, Strain/Indicator: TA100, Metabolic Activation: RAT, LIVER, S-9, SODIUM PHENOBARBITONE, Method: PREINCUBATION) was “inactive; negative” and the mutagenic call (Test System: AMES SALMONELLA TYPHIMURIUM, Strain/Indicator: TA102, Metabolic Activation: NONE, Method: PREINCUBATION) was “inactive; negative”. The mutagenic call (Test System: AMES SALMONELLA TYPHIMURIUM, Strain/Indicator: TA102, Metabolic Activation: RAT, LIVER, S-9, AROCLOR 1254, Method: PREINCUBATION) was “inactive; negative”, the mutagenic call (Test System: AMES SALMONELLA TYPHIMURIUM, Strain/Indicator: TA102, Metabolic Activation: RAT, LIVER, S-9, BETA-NAPHTHOFLAVONE, Method: PREINCUBATION) was “inactive; negative” and the mutagenic call (Test System: AMES SALMONELLA TYPHIMURIUM, Strain/Indicator: TA102, Metabolic Activation: RAT, LIVER, S-9, SODIUM PHENOBARBITONE, Method: PREINCUBATION) was “inactive; negative”. The mutagenic call (Test System: AMES SALMONELLA TYPHIMURIUM, Strain/Indicator: TA104, Metabolic Activation: RAT, LIVER, S-9, AROCLOR 1254, Method: PREINCUBATION) was “inactive; negative”, the mutagenic call (Test System: AMES SALMONELLA TYPHIMURIUM, Strain/Indicator: TA104, Metabolic Activation: RAT, LIVER, S-9, BETA-NAPHTHOFLAVONE, Method: PREINCUBATION) was “inactive; negative” and the mutagenic call (Test System: AMES SALMONELLA TYPHIMURIUM, Strain/Indicator: TA104, Metabolic Activation: RAT, LIVER, S-9, SODIUM PHENOBARBITONE, Method: PREINCUBATION) was “inactive; negative”. The mutagenic call (Test System: AMES SALMONELLA TYPHIMURIUM, Strain/Indicator: TA1535, Metabolic Activation: HAMSTER, LIVER, S-9, AROCLOR 1254, Method: STANDARD PLATE) was “inactive; negative”, the mutagenic call (Test System: AMES SALMONELLA TYPHIMURIUM, Strain/Indicator: TA1535, Metabolic Activation: NONE, Method: STANDARD PLATE) was “inactive; negative” and the mutagenic call (Test System: AMES SALMONELLA TYPHIMURIUM, Strain/Indicator: TA1535, Metabolic Activation: RAT, LIVER, S-9, AROCLOR 1254, Method: STANDARD PLATE) was “inactive; negative”. The mutagenic call (Test System: AMES SALMONELLA TYPHIMURIUM, Strain/Indicator: TA1537, Metabolic Activation: HAMSTER, LIVER, S-9, AROCLOR 1254, Method: STANDARD PLATE) was “inactive; negative”, the mutagenic call (Test System: AMES SALMONELLA TYPHIMURIUM, Strain/Indicator: TA1537, Metabolic Activation: NONE, Method: STANDARD PLATE) was “inactive; negative” and the mutagenic call (Test System: AMES SALMONELLA TYPHIMURIUM, Strain/Indicator: TA1537, Metabolic Activation: RAT, LIVER, S-9, AROCLOR 1254, Method: STANDARD PLATE) was “inactive; negative”. For the same compound, the mutagenic call (Test System: AMES SALMONELLA TYPHIMURIUM, Strain/Indicator: TA1538, Metabolic Activation: HAMSTER, LIVER, S-9, AROCLOR 1254, Method: STANDARD PLATE) was “inactive; negative”, the mutagenic call (Test System: AMES SALMONELLA TYPHIMURIUM, Strain/Indicator: TA1538, Metabolic Activation: NONE, Method: STANDARD PLATE) was “inactive; negative” and the mutagenic call (Test System: AMES SALMONELLA TYPHIMURIUM, Strain/Indicator: TA1538, Metabolic Activation: RAT, LIVER, S-9, AROCLOR 1254, Method: STANDARD PLATE) was “inactive; negative”. The mutagenic call (Test System: MOUSE LYMPHOMA, Strain/Indicator: L5178Y (TK+/TK-), Metabolic Activation: RAT, LIVER, S-9, AROCLOR 1254, Method: SUSPENSION/PLATE) was “inactive; negative. reevaluation of results: negative”.
With C=C(C)C1Cc2c(cc(O)c3c(=O)c4ccccc4n(C)c23)O1 (stereo unspecified) the mutagenic call [2] was “inactive; negative”, the mutagenic call (Test System: AMES SALMONELLA TYPHIMURIUM, Strain/Indicator: TA98, Metabolic Activation: RAT, LIVER, S-9, 3-METHYLCHOLANTHRENE, Method: STANDARD PLATE) was “active; positive” and the mutagenic call (Test System: AMES SALMONELLA TYPHIMURIUM, Strain/Indicator: TA98, Metabolic Activation: RAT, LIVER, S-9, PHENOBARBITAL, Method: STANDARD PLATE) was “active; positive”. For the same compound, the mutagenic call (Test System: AMES SALMONELLA TYPHIMURIUM, Strain/Indicator: TA98, Metabolic Activation: RAT, LIVER, S-9, Method: STANDARD PLATE) was “active; positive”, the mutagenic call [3] was “inactive; negative” and the mutagenic call (Test System: AMES SALMONELLA TYPHIMURIUM, Strain/Indicator: TA100, Metabolic Activation: RAT, LIVER, S-9, 3-METHYLCHOLANTHRENE, Method: STANDARD PLATE) was “active; positive”. The mutagenic call (Test System: AMES SALMONELLA TYPHIMURIUM, Strain/Indicator: TA100, Metabolic Activation: RAT, LIVER, S-9, PHENOBARBITAL, Method: STANDARD PLATE) was “active; positive” and the mutagenic call (Test System: AMES SALMONELLA TYPHIMURIUM, Strain/Indicator: TA100, Metabolic Activation: RAT, LIVER, S-9, Method: STANDARD PLATE) was “active; positive”.
For Nc1cc([N+](=O)[O-])cc([N+](=O)[O-])c1CO, the mutagenic call (End Point: In vitro chromosomal aberrations, Test System: V79 Chinese hamster fibroblasts, Metabolic Activation: None) was “inactive; negative”, the mutagenic call (Test System: Ames Salmonella typhimurium, Strain/Indicator: TA98, Metabolic Activation: None, Method: Standard plate) was “active; positive” and the mutagenic call (Test System: Ames Salmonella typhimurium, Strain/Indicator: TA98, Metabolic Activation: Rat, Liver, S-9, Method: Standard plate) was “active; positive”. For the same compound, the mutagenic call (Test System: Ames Salmonella typhimurium, Strain/Indicator: TA98NR, Metabolic Activation: None, Method: Standard plate) was “active; positive”, the mutagenic call (Test System: Ames Salmonella typhimurium, Strain/Indicator: TA100, Metabolic Activation: None, Method: Standard plate) was “active; positive” and the mutagenic call (Test System: Ames Salmonella typhimurium, Strain/Indicator: TA100, Metabolic Activation: Rat, Liver, S-9, Method: Standard plate) was “active; positive”.
With O[C@@H]1[C@@H]2O[C@@H]2c2c(ccc3cc4ccc5ccccc5c4nc23)[C@H]1O the mutagenic call [1] was “active; positive”, the mutagenic call (Test System: AMES SALMONELLA TYPHIMURIUM, Strain/Indicator: TA100, Metabolic Activation: NONE, Method: PREINCUBATION) was “active; positive” and the mutagenic call (Test System: CHINESE HAMSTER V-79, Strain/Indicator: V-79/8-AZAGUANINE, Metabolic Activation: NONE, Method: STANDARD PLATE) was “active; positive”.
